Test [1] relates to quinone reductase (QR), Hepa 1c1c7 cells. As to the kind of experiment: Quinone reductase (QR) induction in Hepa 1c1c7 cells. The test is classed as cell-based, murine. As to conditions: for CI, chemoprevention index (IC50/CD): 2880 min. The text has this:
This test was used because the specific activity of QR rises concomitantly with other phase II enzymes in many animal tissues in response to various chemopreventive agents. The study included natural and synthetic B-ring substituted flavones, as well as biosynthetic precursor chalcones and flavanones.
Determination of Quinone Reductase Activity in Cell Cultures. To determine the potency of inducers, Hepa 1c1c7 murine hepatoma cells as described in the Gerhauser publication were placed in 96-well plates at a density of 1×10^4 cells/ml in 200 μl of medium. After a preincubation period of 24 hr, the media were decanted and 190 μl fresh media were added to each well. Ten (10) μl test agents dissolved in 10% DMSO (final concentration of DMSO is 0.5%) with a serial 2-fold dilutions were introduced to each well, and the plates were incubated for an additional 48 hours. Specific QR activity was determined by measuring the NADPH-dependent menadiol-mediated reduction of 3-(4, 5-dimethylthiazo-2-yl)-2,5-diphenyltetrazolium bromide to blue formazan formed per mg protein per minute. Protein was determined in an identical set of test plates by staining with crystal violet. Hepa 1c1c7 cells retain many characteristics of normal issues, particularly the capacity for carcinogen activation and metabolism. They are amenable to precise control of environmental, nutritional, and hormonal factors. […] Induction of QR activity was calculated by comparing the QR specific activity of agent-treated cells with that of solvent-treated cells, and a plot of ratio was generated. CD represents the concentration required to double QR induction. Chemopreventive index (CI) is an indexing value generated by comparing CD with IC50 (concentration for 50% inhibition of cell viability) values.
Induction of Quinone Reductase in Hepa 1c1c7 Cells. […] Modification of the B-ring of chalcones, flavanones, and flavones was hypothesized to induce torsion of the B-ring, and, therefor, simulate out-of-plane distortions characteristic of polycyclic aromatic hydrocarbons, such as DMBA. Induction of QR activity was calculated by comparing the QR specific activity of agent-treated cells with the QR specific activity of solvent-treated cells, and a plot of ratios was generated. CD represents the concentration required for a double fold of induction. CI (Chemopreventive Index) is a value obtained by comparing CD with IC50 (concentration for 50% inhibition of cell viability in […]).

In a further test the test system is Hepa 1c1c7 cells. Description: Hepa 1c1c7 cell viability (cytotoxicity). As to conditions: Mus musculus. The test is classed as cell-based, murine.
Another test deals with T1, cytochrome P4501A1 (Rattus norvegicus, UniProt P00185).
T1 sequence (P00185 1-524): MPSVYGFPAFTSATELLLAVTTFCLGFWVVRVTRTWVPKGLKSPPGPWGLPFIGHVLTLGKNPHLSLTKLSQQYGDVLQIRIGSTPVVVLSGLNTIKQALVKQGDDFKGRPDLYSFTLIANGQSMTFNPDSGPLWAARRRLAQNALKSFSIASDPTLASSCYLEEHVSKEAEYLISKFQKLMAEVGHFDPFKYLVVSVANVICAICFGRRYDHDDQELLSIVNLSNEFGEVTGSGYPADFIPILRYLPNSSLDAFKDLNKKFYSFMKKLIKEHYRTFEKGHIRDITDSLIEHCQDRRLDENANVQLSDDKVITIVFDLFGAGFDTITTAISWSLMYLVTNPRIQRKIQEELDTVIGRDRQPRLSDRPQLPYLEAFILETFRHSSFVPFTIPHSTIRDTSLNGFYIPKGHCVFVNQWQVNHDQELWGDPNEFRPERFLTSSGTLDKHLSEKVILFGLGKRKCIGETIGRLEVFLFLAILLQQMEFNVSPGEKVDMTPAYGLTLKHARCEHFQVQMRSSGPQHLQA
As to the kind of experiment: biochemical. The method, then: Inhibition of DMBA-induced Cytochrome P4501A1 Activity. Female Sprague Dawley rats (43 days of age) were treated with DMBA (i.g.), and liver microsomes were isolated through differential centrifugation. Cytochrome P4501A1 activity was monitored by assessing EROD activity. Briefly, 200 μl of microsomal protein (2 mg/ml) were added to a reaction mixture containing 640 μl of 0.05 M Tris-HCl buffer (pH 7.5), 100 μl of BSA (10 mg/ml in Tris buffer), 20 μl of 0.25 M MgCl2, 40 μl of cofactor solution (0.3282 g of NADP and 1.417 g of glucose 6-phosphate in 40 ml of 1.15% KCl), 2.5 units of glucose 6-phosphate dehydrogenase, 10 μl of substrate (1 mg of ethoxyresorufin in 10 ml of methanol) and 10 μl of various concentrations of 4'-BF in DMSO (α-naphthoflavone as positive control; DMSO as negative control). After incubating at 37° C. for 4 min, the reactions were terminated by the addition of 2 ml of methanol. Samples were then centrifuged for 20 min at 2,000×g. and 200 μl of the supernatant fractions were transferred to 96-well plates and read on a spectrofluorimeter (500 nm excitation and 585 nm emission). Assays were conducted in triplicate and the percent of inhibition was calculated as: [1-(sample A-blank)/(DMSO A-blank)]×100.

[2] abbreviates: Mus musculus, Hepa-1c1c7, 48 h, Hepa 1c1c7 cells, 48 h, read-out: CD, concentration to double the specific activity of QR.
Setting [3] is: Hepa-1c1c7, Hepa 1c1c7 cells, read-out: IC50, concentration for 50% inhibition of cell viability.
The mark [4] stands for this setting: Mus musculus, Hepa-1c1c7, 48 h, read-out: CD, concentration to double the specific activity of QR, Hepa 1c1c7 cells, 48 h.
Where [5] appears, read: Hepa-1c1c7, read-out: IC50, concentration for 50% inhibition of cell viability.

The text below walks through data of patent publication US6046231A, “Use of 4'-bromoflavone in a cancer chemopreventative composition and method” (The Board of Trustees of the University of Illinois, priority 1999, dated 2000).

Molecules are shown by their SMILES. Read-outs that look alike come from different tables or passages of the source.

In turn, `O=C(/C=C/c1cccc(Br)c1)c1ccccc1O` [3-Bromo-2'-hydroxychalcone] displayed a Cq in test [1] (Hepa 1c1c7 cells) of 8.2 µM. In addition, the “CI, chemoprevention index (IC50/CD)” value in test [1] is 16. In addition, the EC (2-fold) in test [1] (setting [2]) is 1.3 µM. Besides, in the test with Hepa 1c1c7 cells (setting [3]), the IC50 was 21 µM.

The molecule `O=C1CC(c2ccc(Br)cc2)Oc2ccccc21` (stereo not drawn) [4'-Bromoflavanone] yielded a Cq in test [1] (Hepa 1c1c7 cells) of 11 µM. Moreover, the “CI, chemoprevention index (IC50/CD)” value in test [1] is recorded as 27. Moreover, the EC (2-fold) in test [1] (setting [2]) worked out at 2.3 µM. Also, the IC50 in the test with Hepa 1c1c7 cells (setting [3]) came out at 63 µM.

In test [1] (Hepa 1c1c7 cells), `O=c1cc(-c2ccc(Cl)cc2)oc2ccccc12` [4'-Chloroflavone] yielded a Cq of 0.66 µM. Moreover, the EC (2-fold) in test [1] (Hepa 1c1c7 cells, 48 h, read-out: CD, concentration to double the specific activity of QR) is 0.02 µM; in test [1] (setting [4]), 0.016 µM. Further, in test [1], the “CI, chemoprevention index (IC50/CD)” value was greater than 5000. For the same molecule, the IC50 with Hepa 1c1c7 cells (setting [5]) was greater than 78 µM.

With `O=c1cc(-c2ccc(F)cc2)oc2ccccc12` [4'-Fluoroflavone], the Cq in test [1] (Hepa 1c1c7 cells) is 32 µM. Further, the “CI, chemoprevention index (IC50/CD)” value in test [1] is greater than 24. Besides, the EC (2-fold) in test [1] (setting [2]) stood at 3.4 µM. Moreover, in the test on Hepa 1c1c7 cells (setting [3]), the IC50 is greater than 83 µM.

With `O=c1cc(-c2ccc(C(F)(F)F)cc2)oc2ccccc12` [4'-Trifluoromethylflavone], the Cq in test [1] (Hepa 1c1c7 cells) amounted to 0.1 µM. The “CI, chemoprevention index (IC50/CD)” value in test [1] is 3000. For the same molecule, the EC (2-fold) in test [1] (setting [2]) is 0.03 µM. Also, the IC50 in the test on Hepa 1c1c7 cells (setting [3]) stood at 90 µM.

For the molecule `O=C(/C=C/c1ccc(Br)cc1)c1ccccc1O` [4-Bromo-2'-hydroxychalcone], the Cq in test [1] (Hepa 1c1c7 cells) was found to be 66 µM. Moreover, the “CI, chemoprevention index (IC50/CD)” value in test [1] stood at 4. Further, the EC (2-fold) in test [1] (setting [4]) was 18 µM. Further, in the test on Hepa 1c1c7 cells (setting [5]), the IC50 worked out at 66 µM.

In the case of `O=c1cc(-c2ccccc2)oc2ccccc12` [Flavone], in test [1] (Hepa 1c1c7 cells), the Cq was found to be 8.3 µM. The “CI, chemoprevention index (IC50/CD)” value in test [1] is 42. For the same molecule, the EC (2-fold) in test [1] (setting [2]) was 2.5 µM. Also, in the test on Hepa 1c1c7 cells (setting [3]), the IC50 came out at 106 µM.

`O=c1cc(-c2ccccc2)oc2c1ccc1ccccc12` [a-naphthoflavone, α-naphthoflavone, reference compound] showed an IC50 against cytochrome P4501A1 of 0.09 µM.
